Experimental findings from ChEMBL document CHEMBL5338719, “Recent advance on pleiotropic cholinesterase inhibitors bearing amyloid modulation efficacy” (Eur J Med Chem, 2022) are described below.

The target in experiment [1] is T1, Amyloid-beta precursor protein (Homo sapiens, UniProt P05067). Description: Inhibition of amyloid beta 42 (unknown origin) aggregation at 25 uM relative to control.
The target in experiment [2] is T2, Acetylcholinesterase (Homo sapiens, UniProt P22303). Nature of the experiment: Inhibition of human recombinant AChE by spectrophotometer based Ellman's method. For orientation: In Ellman's method for cholinesterases, released thiocholine reacts with DTNB.
Experiment [3] deals with T1, Amyloid-beta precursor protein. Description: Inhibition of amyloid beta 42 (unknown origin) aggregation at 50 uM for 24 hrs by thioflavin T fluorescence method relative to control.
Experiment [4] deals with T3, Acetylcholinesterase (Electrophorus electricus, UniProt O42275). Nature of the experiment: Inhibition of electric eel AChE.
The target of experiment [5] is T1, Amyloid-beta precursor protein. Nature of the experiment: Inhibition of amyloid beta 1 to 42 (unknown origin) aggregation at 10 uM for 24 hrs by ThT fluorometric assay relative to control.
In experiment [6] the target is T2, Acetylcholinesterase. Description: Inhibition of human recombinant AChE expressed in HEK293 cells using acetylthiocholine as substrate incubated for 120 mins by Ellman's method.
Experiment [7] has as its target T4, Cholinesterase (Homo sapiens, UniProt P06276). Nature of the experiment: Inhibition of human recombinant BChE expressed in HEK293 cells using butyrylthiocholine as substrate incubated for 120 mins by Ellman's method.
Experiment [8] has as its target T1, Amyloid-beta precursor protein. Nature of the experiment: Inhibition of amyloid beta 42 (unknown origin) aggregation at 1 mM for 12 hrs relative to control.
Experiment [9] deals with T5, Acetylcholinesterase (Rattus norvegicus, UniProt P37136).
T5 sequence (P37136 whole entry): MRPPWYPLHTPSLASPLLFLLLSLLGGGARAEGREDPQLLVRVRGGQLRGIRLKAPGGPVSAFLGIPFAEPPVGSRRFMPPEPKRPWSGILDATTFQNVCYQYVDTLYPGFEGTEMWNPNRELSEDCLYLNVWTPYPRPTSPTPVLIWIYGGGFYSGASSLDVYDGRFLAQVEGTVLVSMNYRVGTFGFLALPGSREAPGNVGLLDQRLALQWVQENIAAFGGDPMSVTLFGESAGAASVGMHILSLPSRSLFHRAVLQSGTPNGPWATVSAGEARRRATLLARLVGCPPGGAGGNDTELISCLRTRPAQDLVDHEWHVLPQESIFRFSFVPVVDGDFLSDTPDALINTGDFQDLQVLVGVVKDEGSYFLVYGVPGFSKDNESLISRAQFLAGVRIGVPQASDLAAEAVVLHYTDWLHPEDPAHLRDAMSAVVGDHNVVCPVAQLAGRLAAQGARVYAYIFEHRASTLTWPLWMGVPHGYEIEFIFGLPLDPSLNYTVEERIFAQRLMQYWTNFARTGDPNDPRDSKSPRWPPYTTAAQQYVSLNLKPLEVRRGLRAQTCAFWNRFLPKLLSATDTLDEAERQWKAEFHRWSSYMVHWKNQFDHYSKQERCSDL
Description: Inhibition of rat cortex homogenate AChE by Ellman's method. The format is tissue-based.

In experiment [10] the target is T1, Amyloid-beta precursor protein. Description: Inhibition of amyloid beta 1 to 42 (unknown origin) self induced aggregation at 25 uM by ThT fluorescence assay relative to control.
Experiment [11] has the same target. Nature of the experiment: Inhibition of amyloid beta 42 (unknown origin) self aggregation at 10 uM relative to control.
Experiment [12] deals with T4, Cholinesterase. Nature of the experiment: Inhibition of human BChE.
The target in experiment [13] is T6, Beta-secretase 1 (Homo sapiens, UniProt P56817). Description: Inhibition of BACE1 (unknown origin).
Experiment [14] addresses T3, Acetylcholinesterase. Description: Inhibition of electric eel AChE using ATChI as substrate.
In experiment [15] the target is T7, Cholinesterase (Equus caballus, UniProt P81908). Nature of the experiment: Inhibition of equine BChE using BTChI as substrate.
Experiment [16] has as its target T6, Beta-secretase 1. Nature of the experiment: Inhibition of BACE1 (unknown origin) at 20 uM by fluorescence assay relative to control.
Experiment [17] addresses T1, Amyloid-beta precursor protein. Description: Inhibition of amyloid beta 42 (unknown origin) fibrillization at 44 uM for 48 hrs by ThT fluorescence assay relative to control.
The target in experiment [18] is T3, Acetylcholinesterase. Nature of the experiment: Inhibition of electric eel AChE using acetylthiocholine iodine as substrate by Ellman's method.
For experiment [19], the target named is T6, Beta-secretase 1. Description: Inhibition of BACE1 (unknown origin) at 50 uM by FRET assay relative to control.
For experiment [20], the target named is T1, Amyloid-beta precursor protein. Description: Inhibition of amyloid beta 1 to 42 (unknown origin) aggregation at 50 uM by ThT binding assay relative to control.
The target of experiment [21] is T7, Cholinesterase. Description: Inhibition of equine BChE.
The target in experiment [22] is T1, Amyloid-beta precursor protein. Nature of the experiment: Inhibition of amyloid beta (25 to 35) (unknown origin) aggregation at 10 uM relative to control.
In experiment [23] the target is T2, Acetylcholinesterase. Description: Inhibition of human AChE by Ellman's method.
Experiment [24] deals with T7, Cholinesterase. Nature of the experiment: Inhibition of equine BChE by Ellman's method.
Experiment [25] deals with T1, Amyloid-beta precursor protein. Description: Inhibition of amyloid beta 42 (unknown origin) aggregation at 25 uM by Thioflavin T-based fluorescence assay relative to control.
Experiment [26] deals with T7, Cholinesterase. Description: Inhibition of equine BChE incubated for 15 mins by Ellman's method.
Experiment [27] has as its target T1, Amyloid-beta precursor protein. Description: Inhibition of amyloid beta 42 (unknown origin) aggregation at 10 uM for 24 hrs by ThT fluorescence assay relative to control.
Experiment [28] addresses T2, Acetylcholinesterase. Description: Inhibition of human erythrocyte AChE using […] as substrate preincubated for 5 mins followed by substrate addition measured Ellmans method.
The target in experiment [29] is T1, Amyloid-beta precursor protein. Description: Inhibition of amyloid beta 42 (unknown origin) aggregation at 50 uM by Thioflavin T-based fluorescence assay relative to control.
Experiment [30] has the same target. Description: Inhibition of amyloid beta 1 to 42 (unknown origin) self induced aggregation at 100 uM by thioflavin T-based fluorometric assay relative to control.

T6 sequence (P56817 whole entry): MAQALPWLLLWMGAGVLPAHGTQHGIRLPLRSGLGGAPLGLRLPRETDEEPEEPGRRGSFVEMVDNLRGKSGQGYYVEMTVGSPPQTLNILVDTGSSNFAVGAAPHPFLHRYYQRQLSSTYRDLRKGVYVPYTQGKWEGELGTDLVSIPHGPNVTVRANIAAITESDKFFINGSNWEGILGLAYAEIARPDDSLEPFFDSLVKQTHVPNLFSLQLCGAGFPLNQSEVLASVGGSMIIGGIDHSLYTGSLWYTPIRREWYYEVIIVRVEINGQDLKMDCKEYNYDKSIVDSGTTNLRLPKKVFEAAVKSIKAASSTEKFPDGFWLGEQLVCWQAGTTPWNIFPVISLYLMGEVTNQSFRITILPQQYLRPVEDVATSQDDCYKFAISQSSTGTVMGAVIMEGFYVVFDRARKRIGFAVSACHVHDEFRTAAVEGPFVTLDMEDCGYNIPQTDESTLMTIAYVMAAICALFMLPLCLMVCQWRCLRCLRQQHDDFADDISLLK
T1 sequence (P05067 whole entry): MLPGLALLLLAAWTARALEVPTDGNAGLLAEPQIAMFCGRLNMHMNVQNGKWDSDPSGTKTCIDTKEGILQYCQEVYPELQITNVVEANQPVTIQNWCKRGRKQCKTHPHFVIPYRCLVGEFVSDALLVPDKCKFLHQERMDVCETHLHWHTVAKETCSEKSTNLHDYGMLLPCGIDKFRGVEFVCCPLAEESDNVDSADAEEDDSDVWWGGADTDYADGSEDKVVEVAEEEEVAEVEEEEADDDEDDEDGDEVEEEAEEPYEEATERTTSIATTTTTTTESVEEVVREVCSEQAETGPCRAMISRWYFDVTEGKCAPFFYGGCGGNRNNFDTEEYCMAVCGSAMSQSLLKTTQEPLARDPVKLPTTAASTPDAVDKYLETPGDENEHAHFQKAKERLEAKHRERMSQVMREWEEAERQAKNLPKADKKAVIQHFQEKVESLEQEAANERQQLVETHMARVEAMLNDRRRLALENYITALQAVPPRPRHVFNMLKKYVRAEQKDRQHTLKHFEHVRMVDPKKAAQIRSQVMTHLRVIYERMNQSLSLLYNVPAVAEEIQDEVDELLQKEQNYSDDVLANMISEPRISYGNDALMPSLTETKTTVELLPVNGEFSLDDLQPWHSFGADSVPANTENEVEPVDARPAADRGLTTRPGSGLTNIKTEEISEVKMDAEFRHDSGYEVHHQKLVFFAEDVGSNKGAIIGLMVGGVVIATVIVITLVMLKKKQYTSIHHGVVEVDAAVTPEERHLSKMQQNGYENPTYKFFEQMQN
T3 sequence (O42275 whole entry): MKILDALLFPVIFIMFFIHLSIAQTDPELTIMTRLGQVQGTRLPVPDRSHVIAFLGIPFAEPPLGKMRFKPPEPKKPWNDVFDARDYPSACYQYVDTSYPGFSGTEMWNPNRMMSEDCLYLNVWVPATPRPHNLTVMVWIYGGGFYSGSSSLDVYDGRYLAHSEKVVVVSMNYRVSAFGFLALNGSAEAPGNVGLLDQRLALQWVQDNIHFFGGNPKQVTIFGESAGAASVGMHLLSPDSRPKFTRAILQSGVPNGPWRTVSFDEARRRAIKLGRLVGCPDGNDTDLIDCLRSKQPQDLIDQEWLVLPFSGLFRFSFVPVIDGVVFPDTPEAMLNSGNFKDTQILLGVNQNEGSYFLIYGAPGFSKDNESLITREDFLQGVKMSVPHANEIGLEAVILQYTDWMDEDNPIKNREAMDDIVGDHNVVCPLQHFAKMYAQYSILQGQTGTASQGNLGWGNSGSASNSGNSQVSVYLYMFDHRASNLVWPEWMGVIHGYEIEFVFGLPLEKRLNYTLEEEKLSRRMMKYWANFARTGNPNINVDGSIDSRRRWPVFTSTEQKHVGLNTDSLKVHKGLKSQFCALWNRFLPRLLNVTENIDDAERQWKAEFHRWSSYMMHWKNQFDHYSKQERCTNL
T2 sequence (P22303 whole entry): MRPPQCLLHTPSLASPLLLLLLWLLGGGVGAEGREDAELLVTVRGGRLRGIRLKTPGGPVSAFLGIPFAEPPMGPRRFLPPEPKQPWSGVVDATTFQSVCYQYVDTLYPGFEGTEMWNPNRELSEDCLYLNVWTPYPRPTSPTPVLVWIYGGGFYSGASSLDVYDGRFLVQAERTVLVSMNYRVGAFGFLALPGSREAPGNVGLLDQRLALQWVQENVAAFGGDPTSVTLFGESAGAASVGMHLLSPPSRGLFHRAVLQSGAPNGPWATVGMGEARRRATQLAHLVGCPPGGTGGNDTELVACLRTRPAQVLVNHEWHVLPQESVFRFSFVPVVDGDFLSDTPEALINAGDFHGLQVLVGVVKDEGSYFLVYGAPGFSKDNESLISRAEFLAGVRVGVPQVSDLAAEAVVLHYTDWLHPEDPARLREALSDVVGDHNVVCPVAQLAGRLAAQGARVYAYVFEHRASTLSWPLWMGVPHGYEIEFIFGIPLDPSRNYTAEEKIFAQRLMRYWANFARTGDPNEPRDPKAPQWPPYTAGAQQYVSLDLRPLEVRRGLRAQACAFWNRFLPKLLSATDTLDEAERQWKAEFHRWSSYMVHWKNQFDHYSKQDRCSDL
T7 sequence (P81908 whole entry): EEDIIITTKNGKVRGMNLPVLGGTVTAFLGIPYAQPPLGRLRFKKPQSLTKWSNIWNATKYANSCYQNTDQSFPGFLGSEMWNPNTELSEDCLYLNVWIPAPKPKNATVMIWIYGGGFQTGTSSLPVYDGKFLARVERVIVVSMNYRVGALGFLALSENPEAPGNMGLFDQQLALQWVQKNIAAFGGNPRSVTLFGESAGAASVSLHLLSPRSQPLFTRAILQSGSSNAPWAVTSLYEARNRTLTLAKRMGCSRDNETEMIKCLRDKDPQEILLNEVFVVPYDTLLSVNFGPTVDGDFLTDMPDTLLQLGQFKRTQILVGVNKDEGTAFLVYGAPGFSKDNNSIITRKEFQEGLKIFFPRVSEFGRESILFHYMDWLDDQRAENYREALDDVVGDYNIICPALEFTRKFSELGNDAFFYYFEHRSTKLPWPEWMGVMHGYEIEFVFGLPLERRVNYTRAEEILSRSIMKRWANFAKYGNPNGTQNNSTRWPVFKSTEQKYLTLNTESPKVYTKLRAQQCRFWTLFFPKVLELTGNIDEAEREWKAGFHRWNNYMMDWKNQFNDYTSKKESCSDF
T4 sequence (P06276 whole entry): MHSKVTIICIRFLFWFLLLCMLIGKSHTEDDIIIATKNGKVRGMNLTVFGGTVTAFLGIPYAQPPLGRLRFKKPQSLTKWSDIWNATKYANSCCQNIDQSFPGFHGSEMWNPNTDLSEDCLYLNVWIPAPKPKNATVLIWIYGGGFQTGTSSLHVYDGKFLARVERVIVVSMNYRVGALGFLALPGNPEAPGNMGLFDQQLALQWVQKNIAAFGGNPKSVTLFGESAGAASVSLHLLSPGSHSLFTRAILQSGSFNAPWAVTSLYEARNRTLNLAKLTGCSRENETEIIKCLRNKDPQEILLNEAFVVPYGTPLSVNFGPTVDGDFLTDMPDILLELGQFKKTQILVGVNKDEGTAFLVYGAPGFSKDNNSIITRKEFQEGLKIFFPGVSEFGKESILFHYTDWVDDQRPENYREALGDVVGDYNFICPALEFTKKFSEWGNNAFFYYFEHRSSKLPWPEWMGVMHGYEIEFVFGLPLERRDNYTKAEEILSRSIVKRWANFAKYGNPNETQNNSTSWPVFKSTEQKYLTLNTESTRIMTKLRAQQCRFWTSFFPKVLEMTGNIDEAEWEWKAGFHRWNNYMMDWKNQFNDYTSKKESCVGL

Broadly, the inhibition is the change of the read-out against control, counted positive when it falls. Compound `O=C(CCCN(Cc1ccccn1)Cc1ccccn1)NCCCNc1c2c(nc3ccccc13)CCCC2` had an inhibition in experiment [1] of 71.1%.
One may read the IC50 as the concentration that inhibits the measured activity by half. On to `CC1=C(NC2CCN(Cc3ccccc3)CC2)C(=O)c2ccccc2C1=O`, for which the half-maximal inhibitory concentration (IC50) at Acetylcholinesterase [2] was found to be 47.5 µM. The compound also displayed an inhibition in experiment [3] of 52%.
`COC(=O)C(C)c1ccc(-c2ccc(C(=O)/C=C/c3ccc(CN4CCCC4)c(O)c3)cc2)c(F)c1` (stereo not drawn) returned an inhibition in experiment [1] of 70.7%. The midpoint of inhibition against Acetylcholinesterase [4], the IC50, lay at 7.15 µM.
In experiment [5], `O=S(=O)(NCC1CCN(Cc2ccccc2)CC1)c1ccc(-c2ccccc2)cc1` yielded an inhibition of 60.7%.
For the compound `O=C(C[n+]1ccc2ccccc2c1)Nc1ccccc1Br`, the IC50 at Acetylcholinesterase [6] stood at 13 µM; on Cholinesterase [7], 12 µM. For the same compound, in experiment [8], the inhibition came to 18%.
Take `CCN(CCCCCCOc1ccc(/C=C/C(=O)c2c(O)cc(OC)c(O)c2OC)cc1)Cc1ccccc1OC`: the IC50 against Acetylcholinesterase [9] was found to be 0.41 µM. The inhibition in experiment [10] amounted to 78%.
As to `CN(C)CCN1CCN(c2ccc(C(=O)/C=C/c3cc4ccccc4o3)cc2)CC1`, in experiment [11], the inhibition was determined as 94.6%.
With `N=c1oc2ccccc2cc1C(=O)Nc1cc(Br)ccc1N1CCN(Cc2ccc(F)cc2)CC1`, the IC50 against Cholinesterase [12] came to 10.5 µM; against Beta-secretase 1 [13] it was 6.31 µM.
Regarding `CCCOc1ccc2c(C)cc(=S)oc2c1OCCC`, the IC50 was found to be 5.63 µM at Acetylcholinesterase [14] and 17 µM at Cholinesterase [15]. Further, the inhibition came to 57.2% at Beta-secretase 1 [16] and 76.7% in experiment [17].
Turning to `COc1ccc(/C=C/C(=O)NCCc2cc3ccccc3[nH]2)cc1OC`, the IC50 against Acetylcholinesterase [18] came out at 11.5 µM. Further, the inhibition against Beta-secretase 1 [19] amounted to 40.7%; in [20] it was 10.1%.
Consider `O=C(NCCNc1c2c(nc3cc(Cl)ccc13)CCCC2)c1cc(-c2ccc(Cl)cc2)on1`, for which the IC50 against Acetylcholinesterase [4] was 0.052 µM; against Cholinesterase [21], 0.372 µM; against Beta-secretase 1 [13] it was 1.65 µM. Moreover, the inhibition in experiment [22] came to 79.4%.
Regarding `c1cc2[nH]c3nc(NCCCCCCN4CCCC4)nnc3c2cc1N1CCCCC1`, the IC50 on Acetylcholinesterase [23] was found to be 0.32 µM; on Cholinesterase [24], 0.21 µM. Besides, the inhibition in experiment [25] amounted to 54.3%.
With `CN(C)/C=C/C(=O)c1cc2ccc(OCc3cn(Cc4ccc(F)c(F)c4)nn3)cc2oc1=O`, the IC50 against Cholinesterase [26] came out at 21.7 µM. In experiment [27], this compound came in with an inhibition of 32.6%.
`O=c1nc2sc3ccccc3n2c2ncccc12` registered an IC50 on Acetylcholinesterase [28] of 2.78 µM. The compound also displayed an inhibition in experiment [29] of 30.8%.
Take `CCN(CCCCCOc1cc(O)c2c(c1)OC(c1ccc(O)cc1)CC2=O)Cc1ccccc1` (stereo not drawn): the inhibition in experiment [30] was found to be 62.1%.
